Measured values reported in ChEMBL document CHEMBL1201862, “PubChem BioAssay data set” (2004).
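96-well plates; 48 h exposure; 5 concentrations. Endpoints by linear interpolation between flanking doses. Not reached: highest tested concentration assigned. Here, GI50 denotes the concentration required for 50% inhibition of growth.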 The source made the active and inactive calls. Cut-off read from the data, not from the text of the source: active = GI50 up to about 1.1 µM and inactive = higher.

Key:
Assay in all cases: inhibition of tumour cell growth, NCI panel, 48 h
BT-549 = system: BT-549
COLO 205 = system: COLO 205
EKVX = system: EKVX
HCT-116 = system: HCT-116
HCT-15 = system: HCT-15
HT-29 = system: HT-29
IGROV-1 = system: IGROV-1
KM12 = system: KM12
M14 = system: M14
MCF7 = system: MCF7
MDA-MB-231 = system: MDA-MB-231
NCI-H226 = system: NCI-H226
OVCAR-5 = system: OVCAR-5
PC-3 = system: PC-3
RXF 393 = system: RXF 393
SF-539 = system: SF-539
SK-MEL-28 = system: SK-MEL-28
SW-620 = system: SW-620
T47D = system: T47D
A498 = system: A498

Compound: C/C(=C\CO)CC/C=C(\C)CNc1ccccc1
- GI50 (BT-549): 18.6 µM (inactive)
- GI50 (COLO 205): 41.2 µM (inactive)
- GI50 (EKVX): 23.9 µM (inactive)
- GI50 (HCT-116): 54.5 µM (inactive)
- GI50 (HCT-15): 67.8 µM
- GI50 (HT-29): 19.4 µM (inactive)
- GI50 (IGROV-1): > 100 µM (inactive)
- GI50 (KM12): 28.4 µM (inactive)
- GI50 (M14): 62.7 µM (inactive)
- GI50 (MCF7): 78.7 µM (inactive)
- GI50 (MDA-MB-231): 34.8 µM (inactive)
- GI50 (NCI-H226): 36.9 µM (inactive)
- GI50 (OVCAR-5): > 100 µM (inactive)
- GI50 (PC-3): 28.8 µM (inactive)
- GI50 (RXF 393): 48.1 µM (inactive)
- GI50 (SF-539): 82.6 µM (inactive)
- GI50 (SK-MEL-28): 51.1 µM (inactive)
- GI50 (SW-620): 50.2 µM (inactive)
- GI50 (T47D): 14.7 µM (inactive)

Compound: Cc1ccc(NC(=O)C23CC4CC(CC(C4)C2)C3)c(C(=O)NNC(=O)c2ccc(Cl)cc2)c1
- GI50 (BT-549): 35.9 µM (inactive)
- GI50 (COLO 205): 27.2 µM (inactive)
- GI50 (EKVX): 18.5 µM (inactive)
- GI50 (HCT-116): 25.8 µM (inactive)
- GI50 (HCT-15): 17 µM
- GI50 (HT-29): 23.7 µM (inactive)
- GI50 (IGROV-1): < 0.01 µM (active)
- GI50 (KM12): 21.3 µM (inactive)
- GI50 (M14): 31.8 µM (inactive)
- GI50 (MCF7): 17.4 µM (inactive)
- GI50 (MDA-MB-231): 15.5 µM (inactive)
- GI50 (NCI-H226): 17 µM (inactive)
- GI50 (OVCAR-5): 17.3 µM (inactive)
- GI50 (PC-3): 23.3 µM (inactive)
- GI50 (RXF 393): 15 µM (inactive)
- GI50 (SF-539): 18.1 µM (inactive)
- GI50 (SW-620): 26.2 µM (inactive)
- GI50 (T47D): 18.3 µM (inactive)

Compound: CCCCCCCCCCCCCCCCOC[C@@H](COC(c1ccccc1)(c1ccccc1)c1ccccc1)O[PH](=S)OC (some centres not stated)
- GI50 (A498): 11.5 µM (inactive)
- GI50 (BT-549): 3.35 µM (inactive)
- GI50 (COLO 205): 17.9 µM (inactive)
- GI50 (EKVX): 13.6 µM (inactive)
- GI50 (HCT-116): 3.86 µM (inactive)
- GI50 (HCT-15): 10.6 µM
- GI50 (HT-29): 16.8 µM (inactive)
- GI50 (IGROV-1): 13.7 µM (inactive)
- GI50 (KM12): 4.3 µM (inactive)
- GI50 (M14): 3.3 µM (inactive)
- GI50 (MCF7): 7.43 µM (inactive)
- GI50 (MDA-MB-231): 2.28 µM (inactive)
- GI50 (NCI-H226): 19.1 µM (inactive)
- GI50 (OVCAR-5): 10.8 µM (inactive)
- GI50 (PC-3): 5.32 µM (inactive)
- GI50 (RXF 393): 7.53 µM (inactive)
- GI50 (SF-539): 2.82 µM (inactive)
- GI50 (SW-620): 16.1 µM (inactive)
- GI50 (T47D): 16.2 µM (inactive)

Compound: NS(=O)(=O)c1ccc(NC(=S)N/C=C2\C(=O)Oc3ccccc3C2=O)cc1
- GI50 (A498): 20.5 µM (inactive)
- GI50 (BT-549): 34.7 µM (inactive)
- GI50 (COLO 205): 40.5 µM (inactive)
- GI50 (EKVX): 34.1 µM (inactive)
- GI50 (HCT-116): 33.5 µM (inactive)
- GI50 (HCT-15): 39.2 µM
- GI50 (HT-29): 53.5 µM (inactive)
- GI50 (IGROV-1): 18.9 µM (inactive)
- GI50 (KM12): 16.5 µM (inactive)
- GI50 (M14): 21.3 µM (inactive)
- GI50 (MCF7): 99.5 µM (inactive)
- GI50 (MDA-MB-231): 16 µM (inactive)
- GI50 (NCI-H226): 12.6 µM (inactive)
- GI50 (OVCAR-5): 54.5 µM (inactive)
- GI50 (PC-3): 36.1 µM (inactive)
- GI50 (RXF 393): 12.2 µM (inactive)
- GI50 (SF-539): 44 µM (inactive)
- GI50 (SW-620): 40.1 µM (inactive)
- GI50 (T47D): 41.9 µM (inactive)

Compound: O=C(NNC(=S)NC1CCCCC1)c1csc(NC(=S)NC2CCCCC2)n1
- GI50 (A498): 21.5 µM (inactive)
- GI50 (BT-549): 2.9 µM (inactive)
- GI50 (COLO 205): 3.22 µM (inactive)
- GI50 (EKVX): > 100 µM (inactive)
- GI50 (HCT-116): 4.27 µM (inactive)
- GI50 (HCT-15): 0.463 µM
- GI50 (HT-29): > 100 µM (inactive)
- GI50 (IGROV-1): 3.52 µM (inactive)
- GI50 (KM12): 10.6 µM (inactive)
- GI50 (M14): 3.46 µM (inactive)
- GI50 (MCF7): 7.55 µM (inactive)
- GI50 (MDA-MB-231): 17.8 µM (inactive)
- GI50 (NCI-H226): 66.7 µM (inactive)
- GI50 (OVCAR-5): 12.8 µM (inactive)
- GI50 (PC-3): 10.9 µM (inactive)
- GI50 (SF-539): 4.58 µM (inactive)
- GI50 (SW-620): 5.13 µM (inactive)
- GI50 (T47D): 13.1 µM (inactive)

Compound: Cc1cc(-c2ccccc2)nc2oc(=O)n(C)c12
- GI50 (A498): > 100 µM (inactive)
- GI50 (BT-549): > 100 µM (inactive)
- GI50 (COLO 205): > 100 µM (inactive)
- GI50 (EKVX): 42.8 µM (inactive)
- GI50 (HCT-116): 75 µM (inactive)
- GI50 (HCT-15): > 100 µM
- GI50 (HT-29): > 100 µM (inactive)
- GI50 (IGROV-1): 53.3 µM (inactive)
- GI50 (KM12): > 100 µM (inactive)
- GI50 (M14): > 100 µM (inactive)
- GI50 (MCF7): > 100 µM (inactive)
- GI50 (MDA-MB-231): 64.9 µM (inactive)
- GI50 (NCI-H226): > 100 µM (inactive)
- GI50 (OVCAR-5): > 100 µM (inactive)
- GI50 (PC-3): > 100 µM (inactive)
- GI50 (RXF 393): 28.1 µM (inactive)
- GI50 (SK-MEL-28): > 100 µM (inactive)
- GI50 (SW-620): > 100 µM (inactive)
- GI50 (T47D): 94.6 µM (inactive)

Compound: c1cncc(CC2(c3cc4ccccc4[nH]3)OCCO2)c1
- GI50 (A498): > 100 µM (inactive)
- GI50 (BT-549): 66.1 µM (inactive)
- GI50 (COLO 205): > 100 µM (inactive)
- GI50 (HCT-116): > 100 µM (inactive)
- GI50 (HCT-15): > 100 µM
- GI50 (HT-29): > 100 µM (inactive)
- GI50 (IGROV-1): 22.1 µM (inactive)
- GI50 (KM12): > 100 µM (inactive)
- GI50 (MCF7): > 100 µM (inactive)
- GI50 (MDA-MB-231): > 100 µM (inactive)
- GI50 (NCI-H226): > 100 µM (inactive)
- GI50 (PC-3): > 100 µM (inactive)
- GI50 (SF-539): 58.3 µM (inactive)
- GI50 (SK-MEL-28): > 100 µM (inactive)
- GI50 (SW-620): > 100 µM (inactive)
- GI50 (T47D): > 100 µM (inactive)

Compound: O=C(CSCC(=O)N/N=C\c1cc(Cl)cc(Cl)c1O)N/N=C\c1cc(Cl)cc(Cl)c1O
- GI50 (BT-549): 4.81 µM (inactive)
- GI50 (COLO 205): 6.1 µM (inactive)
- GI50 (EKVX): 4.45 µM (inactive)
- GI50 (HCT-116): 2.9 µM (inactive)
- GI50 (HCT-15): 2.99 µM
- GI50 (HT-29): 10.5 µM (inactive)
- GI50 (IGROV-1): 3.37 µM (inactive)
- GI50 (KM12): 6.1 µM (inactive)
- GI50 (M14): 4.93 µM (inactive)
- GI50 (MCF7): 7.29 µM (inactive)
- GI50 (MDA-MB-231): 2.48 µM (inactive)
- GI50 (NCI-H226): 3.62 µM (inactive)
- GI50 (OVCAR-5): 10.4 µM (inactive)
- GI50 (PC-3): 4.27 µM (inactive)
- GI50 (RXF 393): 20.5 µM (inactive)
- GI50 (SF-539): 2.58 µM (inactive)
- GI50 (SK-MEL-28): 5.21 µM (inactive)
- GI50 (SW-620): 3.79 µM (inactive)
- GI50 (T47D): 3.08 µM (inactive)

Compound: CC(=O)NN(c1ccccc1)C1CCN(c2ccccc2)N1C(C)=O (configuration not stated)
- GI50 (BT-549): > 10 µM (inactive)
- GI50 (COLO 205): 3.13 µM (inactive)
- GI50 (EKVX): > 10 µM (inactive)
- GI50 (HCT-116): 9.84 µM (inactive)
- GI50 (HCT-15): 0.881 µM
- GI50 (HT-29): 5.74 µM (inactive)
- GI50 (IGROV-1): > 10 µM (inactive)
- GI50 (M14): > 10 µM (inactive)
- GI50 (MCF7): 8.91 µM (inactive)
- GI50 (MDA-MB-231): > 10 µM (inactive)
- GI50 (NCI-H226): > 10 µM (inactive)
- GI50 (OVCAR-5): > 10 µM (inactive)
- GI50 (PC-3): 4 µM (inactive)
- GI50 (RXF 393): > 10 µM (inactive)
- GI50 (SF-539): 4.85 µM (inactive)
- GI50 (SK-MEL-28): > 10 µM (inactive)
- GI50 (SW-620): 0.889 µM (active)
- GI50 (T47D): > 10 µM (inactive)

Compound: CNC(=O)N(CCC#N)[C@H]1CCCC[C@@H]1N(C(=O)NC)c1ccccc1
- GI50 (BT-549): > 100 µM (inactive)
- GI50 (COLO 205): > 100 µM (inactive)
- GI50 (EKVX): > 100 µM (inactive)
- GI50 (HCT-116): > 100 µM (inactive)
- GI50 (HCT-15): > 100 µM
- GI50 (HT-29): > 100 µM (inactive)
- GI50 (IGROV-1): > 100 µM (inactive)
- GI50 (KM12): > 100 µM (inactive)
- GI50 (M14): > 100 µM (inactive)
- GI50 (MCF7): > 100 µM (inactive)
- GI50 (MDA-MB-231): > 100 µM (inactive)
- GI50 (NCI-H226): > 100 µM (inactive)
- GI50 (OVCAR-5): > 100 µM (inactive)
- GI50 (PC-3): > 100 µM (inactive)
- GI50 (RXF 393): > 100 µM (inactive)
- GI50 (SF-539): > 100 µM (inactive)
- GI50 (SK-MEL-28): > 100 µM (inactive)
- GI50 (SW-620): > 100 µM (inactive)
- GI50 (T47D): > 100 µM (inactive)

Compound: CC(=O)N1c2cc(/N=N/N(C)C)ccc2NC(=O)CC1C (configuration not stated)
- GI50 (BT-549): > 100 µM (inactive)
- GI50 (COLO 205): > 100 µM (inactive)
- GI50 (EKVX): > 100 µM (inactive)
- GI50 (HCT-116): > 100 µM (inactive)
- GI50 (HCT-15): > 100 µM
- GI50 (HT-29): > 100 µM (inactive)
- GI50 (IGROV-1): > 100 µM (inactive)
- GI50 (KM12): > 100 µM (inactive)
- GI50 (M14): > 100 µM (inactive)
- GI50 (MCF7): > 100 µM (inactive)
- GI50 (MDA-MB-231): > 100 µM (inactive)
- GI50 (NCI-H226): > 100 µM (inactive)
- GI50 (OVCAR-5): > 100 µM (inactive)
- GI50 (PC-3): > 100 µM (inactive)
- GI50 (RXF 393): > 100 µM (inactive)
- GI50 (SK-MEL-28): > 100 µM (inactive)
- GI50 (SW-620): > 100 µM (inactive)
- GI50 (T47D): > 100 µM (inactive)
